According to patent US8685970B2, “Quinolines and related analogs as sirtuin modulators” (GlaxoSmithKline, LLC, priority 2008, dated 2014):
Blank lines part the entries; values can stand above or below the compound they belong to.

Biological target: T1, SIRT1 (Homo sapiens, UniProt Q96EB6)
T1 sequence (Q96EB6 1-747): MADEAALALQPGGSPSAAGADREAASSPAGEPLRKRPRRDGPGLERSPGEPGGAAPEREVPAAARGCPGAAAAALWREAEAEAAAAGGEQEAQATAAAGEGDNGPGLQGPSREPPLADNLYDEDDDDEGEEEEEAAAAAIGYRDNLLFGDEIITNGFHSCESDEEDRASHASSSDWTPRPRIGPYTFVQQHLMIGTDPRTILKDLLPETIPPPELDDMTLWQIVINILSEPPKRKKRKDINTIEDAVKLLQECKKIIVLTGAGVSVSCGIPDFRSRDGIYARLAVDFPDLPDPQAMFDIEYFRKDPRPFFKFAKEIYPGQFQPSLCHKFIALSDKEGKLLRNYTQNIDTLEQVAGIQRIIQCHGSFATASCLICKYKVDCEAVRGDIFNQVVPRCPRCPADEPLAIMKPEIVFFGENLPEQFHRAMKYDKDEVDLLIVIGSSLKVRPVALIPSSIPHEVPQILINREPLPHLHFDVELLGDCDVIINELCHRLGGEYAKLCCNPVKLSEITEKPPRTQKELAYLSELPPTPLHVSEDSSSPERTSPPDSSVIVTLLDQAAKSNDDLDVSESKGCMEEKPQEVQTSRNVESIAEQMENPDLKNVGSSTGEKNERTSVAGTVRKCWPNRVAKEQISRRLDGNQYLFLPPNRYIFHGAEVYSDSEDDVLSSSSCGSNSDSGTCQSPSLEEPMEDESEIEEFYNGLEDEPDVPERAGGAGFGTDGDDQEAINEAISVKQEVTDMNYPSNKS
Assay: Mass spectrometry based SIRT1 deacetylation assay (activation)
Type: biochemical
Details: 10 nM SIRT1, 0.5 μM peptide substrate, 120 μM βNAD+, 25 min at 25° C.
From the text: A mass spectrometry based assay was used to identify modulators of SIRT1 activity. The mass spectrometry based assay utilizes a peptide having 20 amino acid residues as follows: Ac-EE-K (biotin)-GQSTSSHSK (Ac)N1eSTEG-K(5TMR)-EE-NH2 (SEQ ID NO: 1) wherein K(Ac) is an acetylated lysine residue and Nle is a norleucine. The peptide is labeled with the fluorophore 5TMR (excitation 540 nm/emission 580 nm) at the C-terminus. The sequence of the peptide substrate is based on p53 with several modifications. In addition, the methionine residue naturally present in the sequence was replaced with the norleucine because the methionine may be susceptible to oxidation during synthesis and purification.
The mass spectrometry assay is conducted as follows: 0.5 μM peptide substrate and 120 μM βNAD^+ is incubated with 10 nM SIRT1 for 25 minutes at 25° C. in a reaction buffer (50 mM Tris-acetate pH 8, 137 mM NaCl, 2.7 mM KCl, 1 mM MgCl2, 5 mM DTT, 0.05% BSA). Test compounds may be added to the reaction as described above. The SirT1 gene is cloned into a T7-promoter containing vector and transformed into BL21(DE3). After the 25 minute incubation with SIRT1, 10 μL of 10% formic acid is added to stop the reaction. Reactions are sealed and frozen for later mass spec analysis. Determination of the mass of the substrate peptide allows for precise determination of the degree of acetylation (i.e. starting material) as compared to deacetylated peptide (product).
A control for inhibition of sirtuin activity is conducted by adding 1 μL of 500 mM nicotinamide as a negative control at the start of the reaction (e.g., permits determination of maximum sirtuin inhibition). A control for activation of sirtuin activity is conducted using 10 nM of sirtuin protein, with 1 μL of DMSO in place of compound, to determine the amount of deacetylation of the substrate at a given timepoint within the linear range of the assay. This timepoint is the same as that used for test compounds and, within the linear range, the endpoint represents a change in velocity.
For the above assay, SIRT1 protein was expressed and purified as follows. The SirT1 gene was cloned into a T7-promoter containing vector and transformed into BL21(DE3). The protein was expressed by induction with 1 mM IPTG as an N-terminal His-tag fusion protein at 18° C. overnight and harvested at 30,000×g. Cells were lysed with lysozyme in lysis buffer (50 mM Tris-HCl, 2 mM Tris[2-carboxyethyl]phosphine (TCEP), 10 μM ZnCl2, 200 mM NaCl) and further treated with sonication for 10 min for complete lysis. The protein was purified over a Ni-NTA column (Amersham) and fractions containing pure protein were pooled, concentrated and run over a sizing column (Sephadex S200 26/60 global). The peak containing soluble protein was collected and run on an Ion-exchange column (MonoQ). Gradient elution (200 mM-500 mM NaCl) yielded pure protein. This protein was concentrated and dialyzed against dialysis buffer (20 mM Tris-HCl, 2 mM TCEP) overnight. The protein was aliquoted and frozen at −80° C. until further use.
Sirtuin modulating compounds that activated SIRT1 were identified using the assay described above and are shown below in Table 1. The EC1.5 values represent the concentration of test compounds that result in 150% activation of SIRT1. The EC1.5 values for the activating compounds are represented by A (EC1.5<1.0 uM), B (EC1.5 1-25 uM), C (EC1.5>25 uM). The percent maximum fold activation is represented by A (Fold activation >200%) or B (Fold Activation <200%). “NT” indicates the compound was not tested in a particular assay.

% Fold Act. (percent maximum fold activation): A (Fold activation >200%) | EC1.5 (concentration of test compound that results in 150% activation of SIRT1): A (EC1.5<1.0 uM)
Structure (SMILES): O=C(Nc1cccnc1)c1cccc2ccc(-c3cccc(OC(F)(F)F)c3)nc12 [Compound 25]

% Fold Act. (percent maximum fold activation): A (Fold activation >200%) | EC1.5 (concentration of test compound that results in 150% activation of SIRT1): A (EC1.5<1.0 uM)
Structure (SMILES): O=C(Nc1nncs1)c1cccc2ccc(-c3cccc(C(F)(F)F)c3)nc12 [Compound 28]

% Fold Act. (percent maximum fold activation): A (Fold activation >200%) | EC1.5 (concentration of test compound that results in 150% activation of SIRT1): A (EC1.5<1.0 uM)
Structure (SMILES): O=C(Nc1ccccn1)c1cccc2ccc(-c3cccc(C(F)(F)F)c3)nc12 [Compound 30]

% Fold Act. (percent maximum fold activation): A (Fold activation >200%) | EC1.5 (concentration of test compound that results in 150% activation of SIRT1): A (EC1.5<1.0 uM)
Structure (SMILES): O=C(Nc1cccnc1)c1cccc2ccc(-c3cccc(C(F)(F)F)c3)nc12 [Compound 31]

% Fold Act. (percent maximum fold activation): A (Fold activation >200%) | EC1.5 (concentration of test compound that results in 150% activation of SIRT1): A (EC1.5<1.0 uM)
Structure (SMILES): O=C(Nc1ccncc1)c1cccc2ccc(-c3cccc(C(F)(F)F)c3)nc12 [Compound 32]

% Fold Act. (percent maximum fold activation): A (Fold activation >200%) | EC1.5 (concentration of test compound that results in 150% activation of SIRT1): B (EC1.5 1-25 uM)
Structure (SMILES): O=C(Nc1cc[nH]n1)c1cccc2ccc(-c3cccc(C(F)(F)F)c3)nc12 [Compound 34]

% Fold Act. (percent maximum fold activation): B (Fold Activation <200%) | EC1.5 (concentration of test compound that results in 150% activation of SIRT1): B (EC1.5 1-25 uM)
Structure (SMILES): O=C(NCc1ccccn1)c1cccc2ccc(-c3cccc(C(F)(F)F)c3)nc12 [Compound 35]

% Fold Act. (percent maximum fold activation): A (Fold activation >200%) | EC1.5 (concentration of test compound that results in 150% activation of SIRT1): C (EC1.5>25 uM)
Structure (SMILES): O=C(NCc1cccnc1)c1cccc2ccc(-c3cccc(C(F)(F)F)c3)nc12 [Compound 36]

% Fold Act. (percent maximum fold activation): B (Fold Activation <200%) | EC1.5 (concentration of test compound that results in 150% activation of SIRT1): B (EC1.5 1-25 uM)
Structure (SMILES): O=C(NCc1ccncc1)c1cccc2ccc(-c3cccc(C(F)(F)F)c3)nc12 [Compound 37]

% Fold Act. (percent maximum fold activation): A (Fold activation >200%) | EC1.5 (concentration of test compound that results in 150% activation of SIRT1): A (EC1.5<1.0 uM)
Structure (SMILES): O=C(Nc1ccncn1)c1cccc2ccc(-c3cccc(C(F)(F)F)c3)nc12 [Compound 41]

% Fold Act. (percent maximum fold activation): A (Fold activation >200%) | EC1.5 (concentration of test compound that results in 150% activation of SIRT1): A (EC1.5<1.0 uM)
Structure (SMILES): O=C(Nc1ncccn1)c1cccc2ccc(-c3cccc(C(F)(F)F)c3)nc12 [Compound 48]

Further lines, the compound ahead of its results:

Structure (SMILES): O=C(Nc1cccc2ccc(-c3cccc(OC(F)(F)F)c3)nc12)c1ccc(F)cc1 [Compound 22]
EC1.5 (concentration of test compound that results in 150% activation of SIRT1): C (EC1.5>25 uM)

Structure (SMILES): O=C(Nc1cccc2ccc(-c3cccc(OC(F)(F)F)c3)nc12)c1cnc2ccccc2n1 [Compound 23]
EC1.5 (concentration of test compound that results in 150% activation of SIRT1): C (EC1.5>25 uM)

Structure (SMILES): O=C(Nc1ccccn1)c1cccc2ccc(-c3cccc(OC(F)(F)F)c3)nc12 [Compound 24]
% Fold Act. (percent maximum fold activation): A (Fold activation >200%) | EC1.5 (concentration of test compound that results in 150% activation of SIRT1): A (EC1.5<1.0 uM)

Structure (SMILES): O=C(Nc1ccncc1)c1cccc2ccc(-c3cccc(OC(F)(F)F)c3)nc12 [Compound 26]
% Fold Act. (percent maximum fold activation): A (Fold activation >200%) | EC1.5 (concentration of test compound that results in 150% activation of SIRT1): B (EC1.5 1-25 uM)

Structure (SMILES): Cc1csc(NC(=O)c2cccc3ccc(-c4cccc(C(F)(F)F)c4)nc23)n1 [Compound 27]
% Fold Act. (percent maximum fold activation): A (Fold activation >200%) | EC1.5 (concentration of test compound that results in 150% activation of SIRT1): A (EC1.5<1.0 uM)

Structure (SMILES): O=C(NC1CCOC1=O)c1cccc2ccc(-c3cccc(C(F)(F)F)c3)nc12 (stereo not shown) [Compound 38]
% Fold Act. (percent maximum fold activation): A (Fold activation >200%) | EC1.5 (concentration of test compound that results in 150% activation of SIRT1): B (EC1.5 1-25 uM)

Structure (SMILES): O=C(NC1CCOCC1)c1cccc2ccc(-c3cccc(C(F)(F)F)c3)nc12 [Compound 39]
% Fold Act. (percent maximum fold activation): B (Fold Activation <200%) | EC1.5 (concentration of test compound that results in 150% activation of SIRT1): B (EC1.5 1-25 uM)

Structure (SMILES): O=C(NC1CCCC1)c1cccc2ccc(-c3cccc(C(F)(F)F)c3)nc12 [Compound 40]
EC1.5 (concentration of test compound that results in 150% activation of SIRT1): C (EC1.5>25 uM)

Structure (SMILES): Cc1cnc(NC(=O)c2cccc3ccc(-c4cccc(C(F)(F)F)c4)nc23)s1 [Compound 42]
% Fold Act. (percent maximum fold activation): B (Fold Activation <200%) | EC1.5 (concentration of test compound that results in 150% activation of SIRT1): A (EC1.5<1.0 uM)

Structure (SMILES): O=C(Nc1cccc2ccc(-c3ccccc3)nc12)C1CCNCC1 [Compound 43]
EC1.5 (concentration of test compound that results in 150% activation of SIRT1): C (EC1.5>25 uM)

Structure (SMILES): CC(C)(C)c1nnc(NC(=O)c2cccc3ccc(-c4cccc(C(F)(F)F)c4)nc23)s1 [Compound 44]
% Fold Act. (percent maximum fold activation): B (Fold Activation <200%) | EC1.5 (concentration of test compound that results in 150% activation of SIRT1): A (EC1.5<1.0 uM)

Structure (SMILES): O=C(Nc1nccs1)Nc1cccc2ccc(-c3cccc(OC(F)(F)F)c3)nc12 [Compound 45]
% Fold Act. (percent maximum fold activation): B (Fold Activation <200%) | EC1.5 (concentration of test compound that results in 150% activation of SIRT1): A (EC1.5<1.0 uM)

Structure (SMILES): O=C(Nc1ccccn1)Nc1cccc2ccc(-c3cccc(OC(F)(F)F)c3)nc12 [Compound 46]
% Fold Act. (percent maximum fold activation): B (Fold Activation <200%) | EC1.5 (concentration of test compound that results in 150% activation of SIRT1): A (EC1.5<1.0 uM)

Structure (SMILES): O=C(Nc1cccnc1)Nc1cccc2ccc(-c3cccc(OC(F)(F)F)c3)nc12 [Compound 47]
% Fold Act. (percent maximum fold activation): A (Fold activation >200%) | EC1.5 (concentration of test compound that results in 150% activation of SIRT1): A (EC1.5<1.0 uM)

Structure (SMILES): Cc1ccnc(NC(=O)c2cccc3ccc(-c4cccc(C(F)(F)F)c4)nc23)n1 [Compound 49]
% Fold Act. (percent maximum fold activation): A (Fold activation >200%) | EC1.5 (concentration of test compound that results in 150% activation of SIRT1): A (EC1.5<1.0 uM)

Structure (SMILES): Cc1noc(C)c1NC(=O)c1cccc2ccc(-c3cccc(C(F)(F)F)c3)nc12 [Compound 50]
EC1.5 (concentration of test compound that results in 150% activation of SIRT1): C (EC1.5>25 uM)

Structure (SMILES): Cc1cc(NC(=O)c2cccc3ccc(-c4cccc(C(F)(F)F)c4)nc23)n(C)n1 [Compound 51]
% Fold Act. (percent maximum fold activation): A (Fold activation >200%) | EC1.5 (concentration of test compound that results in 150% activation of SIRT1): B (EC1.5 1-25 uM)

Structure (SMILES): Cc1nc(NC(=O)c2cccc3ccc(-c4cccc(C(F)(F)F)c4)nc23)sc1C [Compound 52]
% Fold Act. (percent maximum fold activation): A (Fold activation >200%) | EC1.5 (concentration of test compound that results in 150% activation of SIRT1): A (EC1.5<1.0 uM)

Structure (SMILES): Cc1cc(C)nc(NC(=O)c2cccc3ccc(-c4cccc(C(F)(F)F)c4)nc23)c1 [Compound 53]
% Fold Act. (percent maximum fold activation): A (Fold activation >200%) | EC1.5 (concentration of test compound that results in 150% activation of SIRT1): A (EC1.5<1.0 uM)
